Assays:
[1] = system: ACE2/RBD; conditions: read-out: IC50 as ACE2/RBD binding inhibitor, AlphaLISA; ref 16 (Hanson et al.); cited from earlier work
[2] = molecular target: RBD-Fc/ACE2-Strep (Severe acute respiratory syndrome coronavirus 2, UniProt P0DTC2); test: biochemical; assay type: binding, SARS-CoV-2 S protein; human ACE2
[3] = system: Calu-3 and HEK293-ACE2 cells; conditions: Calu-3 and HEK293-ACE2 cell lines
[4] = system: ACE2/RBD interaction; conditions: up to 100 μM; cell-free ELISA-type assays; RBD residues 319–541; ref 14 (Bojadzic et al.); cited from earlier work
[5] = system: ACE2/RBD interaction; conditions: 150 μM; RBD residues 319–541; ref 11 (Ao et al.); cited from earlier work
[6] = system: spike protein; conditions: Calu-3 cell line; cited from earlier work

| Molecule | cytotoxicity over active concentration ranges [3] | neutralization efficacy [6] | further results |
| --- | --- | --- | --- |
| O=C(O[C@@H]1O[C@@H]2COC(=O)c3cc(O)c(O)c(O)c3-c3c(cc(O)c(O)c3O)C(=O)O[C@H]([C@H]1O)[C@@H]2O)c1cc(O)c(O)c(O)c1 [corilagin] |  |  | IC50 [1]: 5.5 µM |
| CCCCCCCC/C=C\CCCCCCCC(=O)O [oleic acid] | low to moderate cytotoxicity |  | IC50 [2]: 35.3 µM |
| Cc1ccc(C(=O)Nc2ccc(S(=O)(=O)O)c3cc(S(=O)(=O)O)cc(S(=O)(=O)O)c23)cc1NC(=O)c1cccc(NC(=O)Nc2cccc(C(=O)Nc3cc(C(=O)Nc4ccc(S(=O)(=O)O)c5cc(S(=O)(=O)O)cc(S(=O)(=O)O)c45)ccc3C)c2)c1 [suramin] | low to moderate cytotoxicity |  | inhibition of the ACE2/RBD interaction [4]: did not inhibit; inhibition of ACE2/RBD interaction [5]: around 50% |
| REGN10933: monoclonal antibody that targets the spike protein |  | potent neutralization efficacy |  |
| REGN10987: monoclonal antibody that targets the spike protein |  | potent neutralization efficacy |  |

— paper PMC9673917 (ACS Infectious Diseases, 2022)
